Laboratory results taken from ChEMBL document CHEMBL3885881, “DrugMatrix”.

Species on record: Rattus norvegicus
Test: DrugMatrix - Regimen: Daily Repeat
Format: toxicity, organism-based, Sprague-Dawley
Design: regimen Daily Repeat, gender Male, age 6-8 weeks
Conditions: in vivo, po, route oral GAVAGE, vehicle 100 % WATER; for ABSOLUTE BASOPHIL / ABSOLUTE EOSINOPHIL / ABSOLUTE LYMPHOCYTE / ABSOLUTE MONOCYTE / ABSOLUTE SEGMENTED NEUTROPHIL / BASOPHIL / EOSINOPHIL / ERYTHROCYTE COUNT / HEMATOCRIT / HEMOGLOBIN / LEUKOCYTE COUNT / LYMPHOCYTE / MEAN CORPUSCULAR HEMOGLOBIN / MEAN CORPUSCULAR HEMOGLOBIN CONCENTRATION / MEAN CORPUSCULAR VOLUME / MONOCYTE / NEUTROPHIL / NUCLEATED RED BLOOD CELLS / PLATELET COUNT: tissue Blood; for ALANINE AMINOTRANSFERASE / ALBUMIN / ALKALINE PHOSPHATASE / ASPARTATE AMINOTRANSFERASE / BLOOD UREA NITROGEN / CARBON DIOXIDE / CHLORIDE / CHOLESTEROL / CREATINE PHOSPHOKINASE / CREATININE / GLUCOSE / LACTATE DEHYDROGENASE / LIPASE / PHOSPHORUS / POTASSIUM / SODIUM / TOTAL BILIRUBIN / TOTAL PROTEIN / URIC ACID: tissue Plasma
[1] = 1 mg/kg, 120 h, dose level Low, time 5 day
[2] = 10 mg/kg, 72 h, dose level High, time 3 day
[3] = 10 mg/kg, 120 h, dose level High, time 5 day

CC[C@H](C)[C@H]1O[C@]2(C=C[C@@H]1C)C[C@@H]1C[C@@H](C/C=C(\C)[C@@H](O[C@H]3C[C@H](OC)[C@@H](O[C@H]4C[C@H](OC)[C@@H](O)[C@H](C)O4)[C@H](C)O3)[C@@H](C)/C=C/C=C3\CO[C@@H]4[C@H](O)C(C)=C[C@@H](C(=O)O1)[C@]34O)O2.CO[C@H]1C[C@H](O[C@H]2[C@H](C)O[C@@H](O[C@@H]3/C(C)=C/C[C@@H]4C[C@@H](C[C@]5(C=C[C@H](C)[C@@H](C(C)C)O5)O4)OC(=O)[C@@H]4C=C(C)[C@@H](O)[C@H]5OC/C(=C\C=C\[C@@H]3C)[C@]54O)C[C@@H]2OC)O[C@@H](C)[C@@H]1O [ABAMECTIN]
ABSOLUTE BASOPHIL [1]: 0 CELLS/uL
ABSOLUTE EOSINOPHIL [1]: 144.67 CELLS/uL
ABSOLUTE LYMPHOCYTE [1]: 15431.33 CELLS/uL
ABSOLUTE MONOCYTE [1]: 370 CELLS/uL
ABSOLUTE SEGMENTED NEUTROPHIL [1]: 1387.33 CELLS/uL
BASOPHIL [1]: 0%
EOSINOPHIL [1]: 0.67%
ERYTHROCYTE COUNT [1]: 5.65 x10E6/uL
HEMATOCRIT [1]: 33.97%
HEMOGLOBIN [1]: 13.77 G/DL
LEUKOCYTE COUNT [1]: 17.33 x10E3/uL
LYMPHOCYTE [1]: 89.67%
MEAN CORPUSCULAR HEMOGLOBIN [1]: 24.4 pg
MEAN CORPUSCULAR HEMOGLOBIN CONCENTRATION [1]: 40.53 G/DL
MEAN CORPUSCULAR VOLUME [1]: 60.13 fL
MONOCYTE [1]: 2%
NEUTROPHIL [1]: 7.67%
NUCLEATED RED BLOOD CELLS [1]: 0 /100WBC
PLATELET COUNT [1]: 1317.33 x10E3/uL
ALANINE AMINOTRANSFERASE [1]: 48.67 u/L
ALBUMIN [1]: 4.2 G/DL
ALKALINE PHOSPHATASE [1]: 323.67 u/L
ASPARTATE AMINOTRANSFERASE [1]: 72 u/L
BLOOD UREA NITROGEN [1]: 14.67 mg/dL
CARBON DIOXIDE [1]: 25 mmol/L
CHLORIDE [1]: 102 MEQ/L
CHOLESTEROL [1]: 70.33 mg/dL
CREATINE PHOSPHOKINASE [1]: 216.33 u/L
CREATININE [1]: 0.13 mg/dL
GLUCOSE [1]: 162.33 mg/dL
LACTATE DEHYDROGENASE [1]: 87.67 u/L
LIPASE [1]: 9 u/L
PHOSPHORUS [1]: 11.33 mg/dL
POTASSIUM [1]: 6.2 MEQ/L
SODIUM [1]: 144.03 MEQ/L
TOTAL BILIRUBIN [1]: 0.17 mg/dL
TOTAL PROTEIN [1]: 5.87 G/DL
URIC ACID [1]: 1.5 mg/dL
ABSOLUTE BASOPHIL [2]: 0 CELLS/uL
ABSOLUTE EOSINOPHIL [2]: 36.33 CELLS/uL
ABSOLUTE LYMPHOCYTE [2]: 12016 CELLS/uL
ABSOLUTE MONOCYTE [2]: 120 CELLS/uL
ABSOLUTE SEGMENTED NEUTROPHIL [2]: 861 CELLS/uL
BASOPHIL [2]: 0%
EOSINOPHIL [2]: 0.33%
ERYTHROCYTE COUNT [2]: 5.75 x10E6/uL
HEMATOCRIT [2]: 35.6%
HEMOGLOBIN [2]: 13.9 G/DL
LEUKOCYTE COUNT [2]: 13.03 x10E3/uL
LYMPHOCYTE [2]: 92.33%
MEAN CORPUSCULAR HEMOGLOBIN [2]: 24.2 pg
MEAN CORPUSCULAR HEMOGLOBIN CONCENTRATION [2]: 39.07 G/DL
MEAN CORPUSCULAR VOLUME [2]: 61.93 fL
MONOCYTE [2]: 1%
NEUTROPHIL [2]: 6.33%
NUCLEATED RED BLOOD CELLS [2]: 0 /100WBC
PLATELET COUNT [2]: 1234 x10E3/uL
ALANINE AMINOTRANSFERASE [2]: 46.33 u/L
ALBUMIN [2]: 4.23 G/DL
ALKALINE PHOSPHATASE [2]: 426 u/L
ASPARTATE AMINOTRANSFERASE [2]: 78.33 u/L
BLOOD UREA NITROGEN [2]: 14.67 mg/dL
CARBON DIOXIDE [2]: 25 mmol/L
CHLORIDE [2]: 99.67 MEQ/L
CHOLESTEROL [2]: 64 mg/dL
CREATINE PHOSPHOKINASE [2]: 208.33 u/L
CREATININE [2]: 0.18 mg/dL
GLUCOSE [2]: 136.33 mg/dL
LACTATE DEHYDROGENASE [2]: 150.33 u/L
LIPASE [2]: 11 u/L
PHOSPHORUS [2]: 11.37 mg/dL
POTASSIUM [2]: 6.65 MEQ/L
SODIUM [2]: 143.17 MEQ/L
TOTAL BILIRUBIN [2]: 0.17 mg/dL
TOTAL PROTEIN [2]: 5.87 G/DL
URIC ACID [2]: 1.33 mg/dL
ABSOLUTE BASOPHIL [3]: 0 CELLS/uL
ABSOLUTE EOSINOPHIL [3]: 0 CELLS/uL
ABSOLUTE LYMPHOCYTE [3]: 9787 CELLS/uL
ABSOLUTE MONOCYTE [3]: 273.67 CELLS/uL
ABSOLUTE SEGMENTED NEUTROPHIL [3]: 1239.33 CELLS/uL
BASOPHIL [3]: 0%
EOSINOPHIL [3]: 0%
ERYTHROCYTE COUNT [3]: 6.35 x10E6/uL
HEMATOCRIT [3]: 39.13%
HEMOGLOBIN [3]: 15.47 G/DL
LEUKOCYTE COUNT [3]: 11.3 x10E3/uL
LYMPHOCYTE [3]: 85.33%
MEAN CORPUSCULAR HEMOGLOBIN [3]: 24.43 pg
MEAN CORPUSCULAR HEMOGLOBIN CONCENTRATION [3]: 39.53 G/DL
MEAN CORPUSCULAR VOLUME [3]: 61.9 fL
MONOCYTE [3]: 2.67%
NEUTROPHIL [3]: 12%
NUCLEATED RED BLOOD CELLS [3]: 0.33 /100WBC
PLATELET COUNT [3]: 1492.67 x10E3/uL
ALANINE AMINOTRANSFERASE [3]: 38 u/L
ALBUMIN [3]: 4.63 G/DL
ALKALINE PHOSPHATASE [3]: 309 u/L
ASPARTATE AMINOTRANSFERASE [3]: 72.33 u/L
BLOOD UREA NITROGEN [3]: 17 mg/dL
CARBON DIOXIDE [3]: 27.33 mmol/L
CHLORIDE [3]: 98.67 MEQ/L
CHOLESTEROL [3]: 79.33 mg/dL
CREATINE PHOSPHOKINASE [3]: 356.67 u/L
CREATININE [3]: 0.14 mg/dL
GLUCOSE [3]: 153.33 mg/dL
LACTATE DEHYDROGENASE [3]: 446.33 u/L
LIPASE [3]: 8.67 u/L
PHOSPHORUS [3]: 10.47 mg/dL
POTASSIUM [3]: 6.1 MEQ/L
SODIUM [3]: 143.9 MEQ/L
TOTAL BILIRUBIN [3]: 0.13 mg/dL
TOTAL PROTEIN [3]: 6.7 G/DL
URIC ACID [3]: 1.5 mg/dL
